Laboratory results as given in PubChem BioAssay (NCI).
Values joined by “and” are separate entries in the source; they are usually repeats but may differ in a detail not shown here. Equal entries are not always repeated.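 Following 48 hours of exposure in 96-well plates, responses at five concentrations were used to interpolate endpoints linearly. The concentration for 50% growth inhibition is given as GI50. TGI is the concentration that stops growth completely.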

Key:
Assay in all cases: NCI tumour cell line growth inhibition, 48 h
OVCAR-8 ovarian = system: OVCAR-8 ovarian
MDA-MB-435 = system: MDA-MB-435
A498 renal = system: A498 renal
PC-3 prostate = system: PC-3 prostate
SN12C renal = system: SN12C renal
RXF 393 renal = system: RXF 393 renal
HCC-2998 colon = system: HCC-2998 colon
NCI-H522 lung = system: NCI-H522 lung
OVCAR-5 ovarian = system: OVCAR-5 ovarian
LOX IMVI melanoma = system: LOX IMVI melanoma

| Structure (SMILES) | GI50 (OVCAR-8 ovarian) | TGI (OVCAR-8 ovarian) | GI50 (MDA-MB-435) | TGI (MDA-MB-435) | GI50 (A498 renal) | TGI (A498 renal) | GI50 (PC-3 prostate) | TGI (PC-3 prostate) | GI50 (SN12C renal) | TGI (SN12C renal) | GI50 (RXF 393 renal) | TGI (RXF 393 renal) | GI50 (HCC-2998 colon) | TGI (HCC-2998 colon) | GI50 (NCI-H522 lung) | TGI (NCI-H522 lung) | GI50 (OVCAR-5 ovarian) | TGI (OVCAR-5 ovarian) | GI50 (LOX IMVI melanoma) [µM] | TGI (LOX IMVI melanoma) |
| --- | --- | --- | --- | --- | --- | --- | --- | --- | --- | --- | --- | --- | --- | --- | --- | --- | --- | --- | --- | --- |
| COC(=O)[C@H](Cc1ccccc1)NC(=O)[C@@H](OC)[C@@H]1Cc2cc3cc(OC4CC(OC5CC(O)C(O)C(C)O5)C(O)C(C)O4)c(C)c(O)c3c(O)c2C(=O)[C@H]1OC1CC(OC2CC(OC3CC(C)(O)C(O)C(C)O3)C(O)C(C)O2)C(O)C(C)O1 (stereo not given in full) | 0.0108 µM | > 14.3 µM | 0.0182 µM | 0.0642 µM | 0.024 µM | 0.0626 µM | 0.0215 µM | 0.429 µM | 0.00991 µM | > 14.3 µM | 0.0046 µM | 0.0252 µM | 0.0158 µM | 0.0478 µM | 0.0064 µM | 1.72 µM | 0.0396 µM | > 14.3 µM | – | – |
| CC(C)(C)c1nnc2n(c1=O)N=CC(c1ccc(Br)cc1)S2 (stereo not given) | 34.7 µM | > 100 µM | 27.9 µM | 78.7 µM | – | – | 42.1 µM | > 100 µM | 27.7 µM | 57.2 µM | 23.6 µM | 82.5 µM | 26.3 µM | 56.7 µM | 19.2 µM | 41.7 µM | 42.2 µM | > 100 µM | 22.5 | 46.8 µM |
| Cc1ccc([Se][Se]c2ccc(C)cc2)cc1 | – | > 100 µM | – | – | – | > 100 µM | – | – | – | > 100 µM | – | > 100 µM | – | > 100 µM | – | 16.3 µM | – | – | – | 18.9 µM |
| CC(C)(C)n1cc(-c2ccnc(NCCNS(=O)(=O)c3cccc4ccccc34)c2)c(-c2cccc(F)c2)n1 | 26.7 µM | > 100 µM | 19.1 µM | 38.7 µM | – | – | 4.71 µM | 54.4 µM | 13.7 µM | 29 µM | 12.4 µM | 30.2 µM | 13.2 µM | 37.9 µM | 15.5 µM | 44.5 µM | 23.7 µM | 69.9 µM | – | – |
| O=C1NC(=S)NC(=O)C1=Cc1ccc2ccccc2n1 | – | > 100 µM | – | – | – | > 100 µM | – | – | – | > 100 µM | – | > 100 µM | – | > 100 µM | – | > 100 µM | – | > 100 µM | – | > 100 µM |
| O=[N+]([O-])c1ccc2c(c1)S(=O)c1ccccc1-2 (stereo not given) | – | > 100 µM | – | > 100 µM | – | > 100 µM | – | > 100 µM | – | > 100 µM | – | – | – | – | – | > 100 µM | – | > 100 µM | – | > 100 µM |
| COc1cccc2c1C(=O)c1c(O)c3c(c(O)c1C2=O)C[C@@](O)(/C(C)=N\O)C[C@@H]3OC1CC(N)C(O)C(C)O1 (stereo not given in full) | – | 11.8 µM | – | – | – | 3.31 µM | – | 8.08 µM | – | 13.1 µM | – | 4.76 µM | – | 3.04 µM | – | 1.73 µM | – | 12.2 µM | – | 6.06 µM |
| CC(C)c1ccc(O)c(=O)cc1 | 3.54 µM | > 100 µM | 19.6 µM | – | – | > 100 µM | – | – | 5.85 µM | > 100 µM | – | > 86.2 µM | – | > 100 µM | 3.4 µM | 24.5 µM and 24.4 µM | 6.84 µM | 64.8 µM and > 100 µM | 3.54 | 40.7 µM and 72.8 µM |
| COc1cc(C(CC(OC)OC)=C(C#N)C#N)cc(OC)c1OC | – | 73 µM | – | – | – | 40 µM | – | – | – | > 100 µM | – | > 100 µM | – | 40.4 µM | – | 32.9 µM | – | > 100 µM | – | 25.1 µM |
| CN1c2ccccc2C(C)(C)C12CC(c1ccc(Cl)c(S(=O)(=O)N3CCCC3)c1)=NO2 (stereo not given) | > 100 µM | > 100 µM | > 100 µM | > 100 µM | > 100 µM | > 100 µM | 59 µM | > 100 µM | > 100 µM | > 100 µM | > 100 µM | > 100 µM | > 100 µM | > 100 µM | > 100 µM | > 100 µM | > 100 µM | > 100 µM | – | – |
| OC(C(=Nc1ccccc1)c1ccccc1)c1ccccc1 (stereo not given) | – | – | – | 11.8 µM | – | 33.6 µM | – | – | – | 25.3 µM | – | 26.1 µM | – | – | – | 18.9 µM | – | 82.3 µM | – | 38.2 µM |
| CC(C)(CCC(C)(C)c1ccccc1)c1ccccc1 | – | 75.9 µM | – | 49.9 µM | – | 33.2 µM | – | > 100 µM | – | 32.7 µM | – | 27.5 µM | – | – | – | 29.9 µM | – | 33.5 µM | – | 32 µM |
| Cc1nn(C)c(=S)n(C)c1=O | – | 27.3 µM | – | – | – | 37.7 µM | – | – | – | 43.4 µM | – | 7.33 µM | – | > 100 µM | – | 0.822 µM | – | 53.8 µM | – | > 100 µM |
| Cc1nn(C)c(=O)c2nn(-c3ccccc3)c(C)c12 | – | > 100 µM | – | – | – | > 100 µM | – | – | – | > 100 µM | – | > 100 µM | – | > 100 µM | – | > 100 µM | – | > 100 µM | – | > 100 µM |
| C1C[OH+]CC[OH+]CC[OH+]CC[OH+]CC[OH+]CC[OH+]1.[Cl-].[Ta+5] | > 100 µM | > 100 µM | – | – | > 100 µM | > 100 µM | – | – | > 100 µM | > 100 µM | > 100 µM | > 100 µM | > 100 µM | > 100 µM | > 100 µM | > 100 µM | – | – | > 100 | > 100 µM |
| O=C(/C=C/c1ccc(Cl)cc1)c1ccncc1 | – | > 100 µM | – | – | – | 88.7 µM | – | – | – | > 100 µM | – | 88.8 µM | – | > 100 µM | – | > 100 µM | – | > 100 µM | – | 73.6 µM |
| COc1cc2c3c(n(CCCNCCN4CCOCC4)c(=O)c2cc1OC)-c1cc2c(cc1C3=O)OCO2 | 4.37 µM | 17.4 µM | 1.93 µM and 4.36 µM | 10.3 µM and 19.2 µM | 4.1 µM and 16 µM | 11.4 µM and 35.8 µM | 1.9 µM and 1.59 µM | 9.18 µM and 4.91 µM | 1.31 µM | 6.5 µM | – | – | – | – | 2.15 µM | > 100 µM | 0.913 µM and 2.31 µM | 1.74 µM and 5.16 µM | 1.04 | 3.34 µM |
| Clc1ccc(Nc2nc3ccccc3c3occc23)cc1 | 9.2 µM | 20.9 µM | 7.5 µM | 14.1 µM | – | – | 7 µM | 13.5 µM | 10.9 µM | 22.6 µM | 8.4 µM | 16.9 µM | 6.41 µM | 12.7 µM | 9.83 µM | 20.3 µM | 9.4 µM | 18.4 µM | 5.49 | 14.3 µM |
| C=C1C(=O)O[C@H]2[C@H]1CC(=O)/C(C)=C\CC[C@@]1(C)O[C@@H]21 | 3.98 µg/mL | 7.81 µg/mL | 2.98 µg/mL | 7.14 µg/mL | 5.55 µg/mL | 11.3 µg/mL | 4.53 µg/mL | 8.7 µg/mL | 4.17 µg/mL | 8.4 µg/mL | 2.95 µg/mL | 9.41 µg/mL | 3.47 µg/mL | 7.4 µg/mL | 0.411 µg/mL | 0.957 µg/mL | 4.16 µg/mL | 8.24 µg/mL | – | – |
| CCN1CCCCC(=N\O)/C(=N/O)CCCC1 | – | > 100 µM | – | > 100 µM | – | > 100 µM | – | > 100 µM | – | > 100 µM | – | > 100 µM | – | – | – | > 100 µM | – | > 100 µM | – | > 100 µM |
| COP1(=S)OCC2CCC[C@@H]2O1 (stereo not given in full) | – | > 100 µM | – | > 100 µM | – | > 100 µM | – | > 100 µM | – | > 100 µM | – | > 100 µM | – | > 100 µM | – | > 100 µM | – | > 100 µM | – | – |
| COc1cccc(C2C(C#N)=C(N)Oc3cc(OC)ccc32)c1 (stereo not given) | 0.048 µM | > 100 µM | – | – | 0.0198 µM | 0.0709 µM | 0.0373 µM | > 94.6 µM | 0.0773 µM | > 41.8 µM | 0.026 µM | 81.1 µM | 0.0594 µM | – | < 0.0105 µM | 0.0556 µM | 0.0678 µM | > 100 µM | 0.0835 | > 100 µM |
| N#Cc1ccc2oc3ccc(C#N)cc3c(=O)c2c1 | – | > 100 µM | – | > 100 µM | – | 28.9 µM | – | 55 µM | – | > 100 µM | – | 42.8 µM | – | > 100 µM | – | > 100 µM | – | 34.5 µM | – | – |
| C=CCNc1cccc2c1C(=O)c1ccccc1C2(O)CC=C (stereo not given) | 19.5 µM | 47.1 µM | 24.6 µM | 59 µM | 21.8 µM | 47.8 µM | 26.6 µM | 73.8 µM | 20.2 µM | 43 µM | – | – | 20.1 µM | 37.4 µM | 18.4 µM | 51.6 µM | 31.5 µM | 67.9 µM | 18.6 | 35.9 µM |
| COC(=O)c1cc2c(cc1Cl)SC(N(N(C)C)S(=O)(=O)c1ccc(Cl)cc1)=NS2(=O)=O | – | – | 16.3 µM | 33.3 µM | 15.1 µM | 30.1 µM | 7.63 µM | 20.5 µM | 19.2 µM | 47.7 µM | – | – | 16.1 µM | 32.7 µM | 12.4 µM | 30.2 µM | 20.1 µM | 46.7 µM | 15 | 28.3 µM |
| Cc1nc2ccc(NCCN(C)C)c3c(=O)c4cc(O)ccc4n1c23 | – | 2.37 µM | – | 13.7 µM | – | 4.93 µM | – | 4.86 µM | – | 4.93 µM | – | – | – | 1.71 µM | – | 1.98 µM | – | 6.05 µM | – | 2.62 µM |
| CC(=O)OC1=C2C(CC3C4CC=C5CC(OC(C)=O)CCC5(C)C4CCC23C)C2C(=O)N(Cc3ccccc3)C(=O)C2C1 (stereo not given) | 6.9 µM | > 100 µM | 14.5 µM | > 100 µM | 10.9 µM | 43.6 µM | 4.03 µM | > 100 µM | 10.9 µM | > 100 µM | 4.34 µM | 45.3 µM | 11.4 µM | 67 µM | 7.29 µM | 58.7 µM | 50.3 µM | > 100 µM | – | – |
